Data: patent EP0799188B1, “AMIDES OF MONO AND DICARBOXYLIC ACIDS WITH GLYCOSAMINES, SELECTIVELY ACTIVE ON THE CANNABINOID PERIPHERAL RECEPTOR” (LIFEGROUP S.p.A., priority 1994, dated 1996)
Like-named read-outs stand apart in the source and are kept apart here.

Assays:
RBL-2H3 cells = test: 3H-serotonin release induced by ADNP/DNP.HSA immunogenic stimulation; assay type: cell-based, rat; conditions: for inhibition at 100 µM / inhibition at 20 µM / EC50 / inhibition at 5 µM / inhibition at 12.5 µM / inhibition at 25 µM: Rattus norvegicus; for inhibition at 100 µM: RBL-2H3, DMSO 1%; for inhibition at 20 µM: RBL-2H3, DMSO 0.2%; for inhibition at 5 µM: RBL-2H3, read-out: 3H-serotonin net release inhibition (%), 5µM; for effect on serotonin release (RBL cells immunogenic activation): statement in words on Table 3; for inhibition at 12.5 µM: RBL-2H3, 12.5µM, -WIN
[1] = solubility in organic solvents; assay type: physicochemical; conditions: organic solvent or mixture, read-out: solubility in org. sol.
[2] = tested on: cerebellar granule cell culture; test: neuroprotective effect against glutamate-induced cell death (MTT); assay type: cell-based, mouse; conditions: Mus musculus; glutamate 500 µM for 5 minutes; compound added for 10 minutes, 15 minutes after removing glutamate; MTT after 24 hours; means ± SEM; read-out: EC50
CB2 receptor = target: T1, CB2 receptor (Rattus norvegicus, UniProt Q9QZN9); test: 3H-WIN 55,212-2 binding displacement on RBL-2H3 cell membranes
T1 construct: 30 µg membrane proteins prepared in item a); endogenous in cells; host or cells: RBL-2H3 cells (plasma membrane preparation)
T1 sequence (Q9QZN9 1-360): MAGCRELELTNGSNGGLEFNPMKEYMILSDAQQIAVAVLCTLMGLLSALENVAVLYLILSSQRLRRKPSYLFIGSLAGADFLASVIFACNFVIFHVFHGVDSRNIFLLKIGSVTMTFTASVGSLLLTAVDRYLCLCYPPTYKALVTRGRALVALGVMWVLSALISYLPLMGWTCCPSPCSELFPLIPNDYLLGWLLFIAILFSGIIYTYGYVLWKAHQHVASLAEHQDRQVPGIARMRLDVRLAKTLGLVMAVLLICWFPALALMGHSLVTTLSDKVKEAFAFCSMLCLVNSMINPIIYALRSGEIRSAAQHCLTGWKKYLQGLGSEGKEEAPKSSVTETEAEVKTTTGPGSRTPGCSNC

[3] = RBL-2H3, concentration inhibiting by 50% the net release of 3H serotonin, 0.2% DMSO, 15 minutes release period, means ± SEM, read-out: EC50
[4] = RBL-2H3, inhibition of 3H-serotonin release, +anandamide (12.5 µM), read-out: ED50 (the source's name)
[5] = RBL-2H3, inhibition of 3H-serotonin release, -anandamide, read-out: ED50 (the source's name)
[6] = read-out: 3H-serotonin net release inhibition (%)

In the case of `O=C(O)CNC(=O)/C=C/CCCCCCCCC(=O)NCC(=O)O` [Example 13, N,N'-trans-2-dodecendioyl-diglycine], the inhibition at 100 µM (RBL-2H3 cells; 100µM) is reported as 54%, the water solubility (water solubility) is reported as “slightly soluble” and the solubility (water solubility; water) is reported as > 10000 µg/mL. For the same compound, the solubility ([1]; in DMSO) was > 10000 µg/mL.

`CCCCCCCCCCCCCCCC(=O)N[C@H]1C(O)O[C@H](CO)[C@@H](O)[C@@H]1O` (stereo partly drawn) [Example 14, N-palmitoyl-D-glucosamine] gave an inhibition at 20 µM (RBL-2H3 cells) of 76%, an inhibition at 100 µM (RBL-2H3 cells; 100µM) of 91% and an EC50 (RBL-2H3 cells; [3]) of 1.28 ± 0.38 µM. For the same compound, the EC50 (RBL-2H3 cells; [4]) was 3.3 µM, the EC50 (RBL-2H3 cells; [5]) was 0.51 µM and the water solubility (water solubility) was “slightly soluble”. For the same compound, the solubility ([1]; in DMSO) was > 1000 µg/mL.

Work on `CCCCCCCCCCCC(=O)N[C@H]1C(O)O[C@H](CO)[C@@H](O)[C@@H]1O` (stereo partly drawn) [Example 15, N-lauroyl-D-glucosamine] yielded an inhibition at 20 µM (RBL-2H3 cells) of 67%, an inhibition at 100 µM (RBL-2H3 cells; 100µM) of 86% and an EC50 (RBL-2H3 cells; [3]) of 12 µM. For the same compound, the water solubility (water solubility) was “slightly soluble” and the solubility ([1]; in DMSO) was > 5000 µg/mL.

For `CCCCCCCC/C=C\CCCCCCCC(=O)N[C@H]1C(O)O[C@H](CO)[C@@H](O)[C@@H]1O` (stereo partly drawn) [Example 16, N-oleoyl-D-glucosamine], the inhibition at 20 µM (RBL-2H3 cells) was 92%, the inhibition at 100 µM (RBL-2H3 cells; 100µM) was 86% and the EC50 (RBL-2H3 cells; [3]) was 2.4 ± 0.5 µM. The EC50 (RBL-2H3 cells; [4]) was 4.2 µM, the EC50 (RBL-2H3 cells; [5]) was 2.9 µM and the water solubility (water solubility) was “slightly soluble”. For the same compound, the solubility ([1]; in DMSO) was > 5000 µg/mL.

For `CCCCCCCCCCCC(=O)N1CC(O)C[C@H]1C(=O)O` (stereo partly drawn) [Example 17, N-lauroyl-4-hydroxy-L-proline], the water solubility (water solubility) was “slightly soluble”, the solubility (water solubility; phosphate buffer, pH 7.4, aqueous buffer) was > 10000 µg/mL and the solubility ([1]; in DMSO) was > 10000 µg/mL. For the same compound, the solubility ([1]; in ethanol) was > 10000 µg/mL.

For `CCCCCCCCCCCCCCCC(=O)NCCO` [N-(2-hydroxyethyl)-hexadecanamide, reference compound], the “3H-serotonin net release (%)” value (RBL-2H3 cells; 100µM, 1% DMSO and 1% ethanol) was 0% and the EC50 (RBL-2H3 cells; RBL-2H3, inhibition of serotonin release, 1% DMSO and 1% ethanol, read-out: ED50 (µm)) was 2.6 µM.

With `CCCCC/C=C\C/C=C\CCCCCCCC(=O)NCCO` [N-(2-hydroxyethyl)-linoleylamide, reference compound] the “3H-serotonin net release (%)” value (RBL-2H3 cells; 100µM, 0.1% DMSO and 0.1% ethanol) was 100%.

In the case of `CCCCCCC(C)(C)c1cc(O)c2c(c1)OC(C)(C)C1CCC(=O)CC21` (stereo not drawn) [Nabilone, 3-(1,1-dimethylheptyl)-6,6a,7,8,10,10a-hexahydro-1-hydroxy-6,6-dimethyl-9H-dibenzo-[b,d]-pyran-9-one, reference compound], the EC50 [2] is reported as 3.9 ± 1.1 µM, the IC50 (CB2 receptor; IC50 (nM), RBL-2H3 cell membranes, 1% DMSO, means ± SEM) is reported as 2.6 ± 1.4 nM and the “Displacement (%)” value (CB2 receptor; competitor 10 µM, amides in 0.1% DMSO, Anandamide and Nabilone in 0.1% ethanol) is reported as 100%. For the same compound, the “3H-serotonin net release (%)” value (RBL-2H3 cells; 10µM, 0.1% DMSO and 0.1% ethanol) was 0%, the inhibition at 5 µM (RBL-2H3 cells; + anandamide (12.5 µM)) was 50% and the inhibition at 5 µM (RBL-2H3 cells; -anandamide) was 90%. For the same compound, the EC50 (RBL-2H3 cells; RBL-2H3, read-out: ED50 (µM), inhibition of 3H-serotonin release, +anandamide (12.5 µM)) was 5 µM, the EC50 (RBL-2H3 cells; RBL-2H3, read-out: ED50 (µM), inhibition of 3H-serotonin release, -anandamide) was 2.8 µM and the EC50 (RBL-2H3 cells; RBL-2H3, read-out: ED50 (µm), inhibition of serotonin release, 0.1% DMSO and 0.1% ethanol) was 2.8 µM. The “effect on serotonin release (RBL cells immunogenic activation)” value (from here on “effect on serotonin release”) (RBL-2H3 cells) was “able to inhibit, in a concentration-dependent way”.

Compound `CCCCC/C=C\C/C=C\C/C=C\C/C=C\CCCC(=O)O` [arachidonic acid, reference compound] has an inhibition at 12.5 µM (RBL-2H3 cells; [6]) of 4%.

For `NCCO` [ethanolamine, reference compound], the inhibition at 12.5 µM (RBL-2H3 cells; [6]) was 6%.

For `CCCCCc1cc(O)c2c(c1)OC(C)(C)[C@@H]1CCC(C)=C[C@@H]21` [Δ9-THC, Δ9-tetrahydrocannabinol, reference compound], the “3H-serotonin net release (%)” value (RBL-2H3 cells; 25µM, 0.1% DMSO and 0.1% ethanol) was 27%, the EC50 (RBL-2H3 cells; RBL-2H3, read-out: ED50 (µm)) was 5 µM and the inhibition at 25 µM (RBL-2H3 cells; RBL-2H3, 25µM, -anandamide, read-out: 3H-serotonin net release inhibition (%)) was 73%. The EC50 (RBL-2H3 cells; RBL-2H3, read-out: ED50 (the source's name)) was 5 µM and the “effect on serotonin release” value (RBL-2H3 cells) was “able to inhibit, in a concentration-dependent way”.

`CCCCCc1cc(O)c2c(c1)OC(C)(C)C1CC=C(C)CC21` (stereo not drawn) [Δ 8-THC, Δ8-tetrahydrocannabinol, reference compound] gave an inhibition at 25 µM (RBL-2H3 cells; RBL-2H3, read-out: 3H-serotonin net release inhibition (%)) of 100%, an EC50 (RBL-2H3 cells; RBL-2H3, read-out: ED50 (µM)) of 5 µM and an EC50 (RBL-2H3 cells; RBL-2H3, read-out: ED50 (µm)) of 5 µM. For the same compound, the “effect on serotonin release” value (RBL-2H3 cells) was “able to inhibit, in a concentration-dependent way”.
